Source: PubChem BioAssay AID256 (DTP/NCI, 2004)
Inconclusive results and toxic doses are left out. Rule for the calls: active = survival T/C of 150% or more; inactive = T/C below 125% in these data.

System: CD2F1 mice, L1210 leukemia ip, survival T/C
Test: NCI In Vivo Anticancer Drug Screen. Data for tumor model L1210 Leukemia (intraperitoneal) in CD2F1 (CDF1) mice
Settings: higher = longer survival
Procedure, shortened: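 Tumor-bearing mice (transplanted tumor) were split into treated and vehicle control groups, and the measured endpoint of each treated group was divided by that of its vehicle controls.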

[1] = endpoint: mean survival time, dose: 12.5 mg/kg/injection, schedule: Q01DX009 (ip), vehicle: saline with Tween-80
[2] = endpoint: mean survival time, dose: 25.0 mg/kg/injection, schedule: Q01DX009 (ip), vehicle: saline with Tween-80
[3] = endpoint: mean survival time, dose: 50.0 mg/kg/injection, schedule: Q01DX009 (ip), vehicle: saline with Tween-80
[4] = endpoint: mean survival time, dose: 25.0 mg/kg/injection, schedule: Q04DX003 (ip), vehicle: saline
[5] = endpoint: mean survival time, dose: 50.0 mg/kg/injection, schedule: Q04DX003 (ip), vehicle: saline
[6] = endpoint: mean survival time, dose: 100.0 mg/kg/injection, schedule: Q04DX003 (ip), vehicle: saline
[7] = endpoint: mean survival time, dose: 100.0 mg/kg/injection, schedule: Q01DX001 (ip), vehicle: saline
[8] = endpoint: mean survival time, dose: 200.0 mg/kg/injection, schedule: Q01DX001 (ip), vehicle: saline
[9] = endpoint: mean survival time, dose: 400.0 mg/kg/injection, schedule: Q01DX001 (ip), vehicle: saline
[10] = endpoint: mean survival time, dose: 100.0 mg/kg/injection, schedule: Q01DX009 (ip), vehicle: saline with Tween-80
[11] = endpoint: mean survival time, dose: 200.0 mg/kg/injection, schedule: Q01DX009 (ip), vehicle: saline with Tween-80
[12] = endpoint: mean survival time, dose: 200.0 mg/kg/injection, schedule: Q04DX003 (ip), vehicle: saline
[13] = endpoint: mean survival time, dose: 400.0 mg/kg/injection, schedule: Q01DX009 (ip), vehicle: saline with Tween-80
[14] = endpoint: mean survival time, dose: 400.0 mg/kg/injection, schedule: Q04DX003 (ip), vehicle: saline
[15] = endpoint: mean survival time, dose: 100.0 mg/kg/injection, schedule: Q04DX003 (ip), vehicle: saline with Tween-80
[16] = endpoint: mean survival time, dose: 200.0 mg/kg/injection, schedule: Q04DX003 (ip), vehicle: saline with Tween-80
[17] = endpoint: mean survival time, dose: 400.0 mg/kg/injection, schedule: Q04DX003 (ip), vehicle: saline with Tween-80
[18] = endpoint: mean survival time, dose: 100.0 mg/kg/injection, schedule: Q04DX002 (ip), vehicle: saline with Tween-80
[19] = endpoint: mean survival time, dose: 200.0 mg/kg/injection, schedule: Q04DX002 (ip), vehicle: saline with Tween-80
[20] = endpoint: mean survival time, dose: 400.0 mg/kg/injection, schedule: Q04DX002 (ip), vehicle: saline with Tween-80

Measured: T/C

CC1=CC2=C(C=O)C(=O)[C@](C)(O)[C@@H](O)C2=CO1
inactive: [1] 114 % of control | [2] 111 % of control | [3] 122 % of control

O=C1CCCC2C1CCCC21OCCO1 (configuration not stated)
inactive: [4] 93 % of control | [5] 100 % of control | [6] 102 % of control

O=P(OCCCCCl)(OCCCCCl)C(Cl)Cl
inactive: [7] 100 % of control | [8] 100 % of control | [9] 108 % of control

C=C(C)Cc1cc(C(CC)C(CC)c2ccc(O)c(CC(=C)C)c2)ccc1O (configuration not stated)
inactive: [10] 100 % of control | [6] 96 % of control | [11] 98 % of control | [12] 93 % of control | [13] 100 % of control | [14] 89 % of control

Oc1ccc(O)c(/C=N/NC(=S)NC2CC3CC2C2C=CCC32)c1 (configuration not stated)
inactive: endpoint: mean survival time, dose: 12.5 mg/kg/injection, schedule: Q01DX009 (ip), vehicle: olive oil, sesame oil, peanut oil 93 % of control | endpoint: mean survival time, dose: 25.0 mg/kg/injection, schedule: Q01DX009 (ip), vehicle: olive oil, sesame oil, peanut oil 96 % of control | endpoint: mean survival time, dose: 50.0 mg/kg/injection, schedule: Q01DX009 (ip), vehicle: olive oil, sesame oil, peanut oil 100 % of control | endpoint: mean survival time, dose: 100.0 mg/kg/injection, schedule: Q01DX009 (ip), vehicle: olive oil, sesame oil, peanut oil 102 % of control | endpoint: mean survival time, dose: 200.0 mg/kg/injection, schedule: Q01DX009 (ip), vehicle: olive oil, sesame oil, peanut oil 87 % of control | endpoint: mean survival time, dose: 400.0 mg/kg/injection, schedule: Q01DX009 (ip), vehicle: olive oil, sesame oil, peanut oil 94 % of control

CCOCCC(=O)NCc1ccccc1
inactive: [15] 100 % of control | [16] 98 % of control | [17] 102 % of control

NN1C(=O)Cc2ccccc2C1=O
inactive: [10] 103 % of control | [11] 109 % of control | [13] 105 % of control

Cc1ccc(/C=N/NC(=O)CNC(=O)Nc2cccc(C(F)(F)F)c2)cc1
inactive: [3] 92 % of control | [10] 88 % of control | [11] 92 % of control

CC(C(=O)OC1CCCC2OC12)S(=O)(=O)c1ccccc1 (configuration not stated)
inactive: [3] 90 % of control | [10] 94 % of control | [11] 94 % of control

CCCCCCCCCCCCCCCCOC(=O)Nc1ccc(S(=O)(=O)N(CCC)CCC)cc1
inactive: [7] 94 % of control | [8] 96 % of control | [9] 92 % of control

CCOc1ccc(/C=C/c2cc[n+](C)cc2)cc1OC
inactive: [7] 103 % of control

CC(=O)OCC1OC(OC(C)=O)C(NC(=O)C[NH-])C(OC(C)=O)C1OC(C)=O.CC(=O)OCC1OC(OC(C)=O)C(NC(=O)C[NH-])C(OC(C)=O)C1OC(C)=O.[Cl][Pt+2][Cl] (configuration not stated)
inactive: endpoint: mean survival time, dose: 12.5 mg/kg/injection, schedule: Q04DX003 (ip), vehicle: saline 96 % of control | [4] 98 % of control | [5] 98 % of control | [6] 106 % of control | [12] 98 % of control

COc1ccc(NC(=O)Oc2cccc(C)c2)cc1
inactive: [18] 90 % of control | [19] 97 % of control | [20] 93 % of control

CN(C)CCN(C)CCN(C)CCN(C)C
inactive: [6] 95 % of control | [12] 97 % of control | [14] 108 % of control

CCC[CH2][Sn]1([CH2]CCC)[O]C2C(CO)OC(n3ccc4c(N)ncnc43)C2[O]1 (configuration not stated)
inactive: endpoint: mean survival time, dose: 0.39 mg/kg/injection, schedule: Q01DX005 (ip), vehicle: water 97 % of control | endpoint: mean survival time, dose: 0.78 mg/kg/injection, schedule: Q01DX005 (ip), vehicle: water 103 % of control | endpoint: mean survival time, dose: 1.56 mg/kg/injection, schedule: Q01DX005 (ip), vehicle: other 111 % of control | endpoint: mean survival time, dose: 1.56 mg/kg/injection, schedule: Q01DX005 (ip), vehicle: water 90 % of control | endpoint: mean survival time, dose: 3.13 mg/kg/injection, schedule: Q01DX005 (ip), vehicle: other 95 % of control | endpoint: mean survival time, dose: 3.13 mg/kg/injection, schedule: Q01DX005 (ip), vehicle: water 106 % of control

CNC(=O)OC(C)CC(O)(C(F)(F)F)C(F)(F)F (configuration not stated)
inactive: [2] 97 % of control | endpoint: mean survival time, dose: 25.0 mg/kg/injection, schedule: Q04DX003 (ip), vehicle: saline with Tween-80 96 % of control | [3] 101 % of control | endpoint: mean survival time, dose: 50.0 mg/kg/injection, schedule: Q04DX003 (ip), vehicle: saline with Tween-80 98 % of control | [10] 98 % of control | endpoint: mean survival time, dose: 100.0 mg/kg/injection, schedule: Q04DX003 (ip), vehicle: Klucel (hydroxypropylcellulose) (HPC) 96 % of control | [15] 98 % of control

COc1ccc(C(=O)CC(C(=O)O)c2ccc3c(c2)OCO3)cc1OC (configuration not stated)
inactive: [15] 101 % of control | [16] 101 % of control | [17] 101 % of control

O=C(COc1ccc(F)cc1)OCCO
inactive: [18] 105 % of control | [19] 101 % of control | [20] 105 % of control

CC1CCCC(C)N1CC(O)c1ccccc1 (configuration not stated)
inactive: endpoint: mean survival time, dose: 6.25 mg/kg/injection, schedule: Q01DX009 (ip), vehicle: saline with Tween-80 98 % of control | [1] 100 % of control | [2] 102 % of control

CC(C)CC(C)OP(=S)(S)OC(C)CC(C)C.[Cd] (configuration not stated)
inactive: endpoint: mean survival time, dose: 6.25 mg/kg/injection, schedule: Q04DX002 (ip), vehicle: saline 93 % of control | endpoint: mean survival time, dose: 12.5 mg/kg/injection, schedule: Q04DX002 (ip), vehicle: saline 104 % of control | endpoint: mean survival time, dose: 25.0 mg/kg/injection, schedule: Q04DX002 (ip), vehicle: saline with Tween-80 100 % of control | endpoint: mean survival time, dose: 25.0 mg/kg/injection, schedule: Q04DX002 (ip), vehicle: saline 93 % of control | endpoint: mean survival time, dose: 50.0 mg/kg/injection, schedule: Q04DX002 (ip), vehicle: saline with Tween-80 88 % of control

CCOC(=O)C(C)(C(=O)OCC)c1cc2ccccc2c2ccccc12
inactive: endpoint: mean survival time, dose: 100.0 mg/kg/injection, schedule: Q01DX001 (ip), vehicle: Klucel (hydroxypropylcellulose) (HPC) 104 % of control | endpoint: mean survival time, dose: 200.0 mg/kg/injection, schedule: Q01DX001 (ip), vehicle: Klucel (hydroxypropylcellulose) (HPC) 104 % of control | endpoint: mean survival time, dose: 400.0 mg/kg/injection, schedule: Q01DX001 (ip), vehicle: Klucel (hydroxypropylcellulose) (HPC) 104 % of control

CNC(=S)Nc1ccc(C(=O)NC(C)C)cc1
inactive: endpoint: mean survival time, dose: 50.0 mg/kg/injection, schedule: Q01DX009 (ip), vehicle: other 100 % of control | endpoint: mean survival time, dose: 100.0 mg/kg/injection, schedule: Q01DX009 (ip), vehicle: other 95 % of control | endpoint: mean survival time, dose: 200.0 mg/kg/injection, schedule: Q01DX009 (ip), vehicle: other 97 % of control

CC(C)CC(=O)c1ccccc1O
inactive: [7] 100 % of control | [8] 97 % of control | [9] 96 % of control

NSc1ccc([N+](=O)[O-])cc1
active: endpoint: mean survival time, dose: 25.0 mg/kg/injection, schedule: Q01DX001 (ip), vehicle: other 270 % of control | endpoint: mean survival time, dose: 50.0 mg/kg/injection, schedule: Q01DX001 (ip), vehicle: other 204 % of control

Cc1ccc2ccccc2c1N(CC(=O)O)S(=O)(=O)c1ccccc1
inactive: [10] 103 % of control | [11] 101 % of control | [13] 88 % of control

CCCCC(CCC)OC(=O)Nc1cccc2ccccc12 (configuration not stated)
inactive: endpoint: mean survival time, dose: 100.0 mg/kg/injection, schedule: Q01DX001 (ip), vehicle: saline with Tween-80 93 % of control | endpoint: mean survival time, dose: 200.0 mg/kg/injection, schedule: Q01DX001 (ip), vehicle: saline with Tween-80 93 % of control | endpoint: mean survival time, dose: 400.0 mg/kg/injection, schedule: Q01DX001 (ip), vehicle: saline with Tween-80 93 % of control

CSc1nc(NC2OC(CO)C(O)C(O)C2O)c(Br)c(=O)n1C (configuration not stated)
inactive: endpoint: median survival time, dose: 12.5 mg/kg/injection, schedule: Q01DX005 (ip), vehicle: saline with Tween-80 98 % of control | endpoint: median survival time, dose: 25.0 mg/kg/injection, schedule: Q01DX005 (ip), vehicle: saline with Tween-80 100 % of control | endpoint: median survival time, dose: 50.0 mg/kg/injection, schedule: Q01DX005 (ip), vehicle: saline with Tween-80 96 % of control | endpoint: median survival time, dose: 100.0 mg/kg/injection, schedule: Q01DX005 (ip), vehicle: saline with Tween-80 101 % of control

CCCCCCCCN(C#N)CCCCCCCC
inactive: [10] 100 % of control | [11] 95 % of control | [13] 97 % of control

OCC1C2C=CC1CC2 (configuration not stated)
inactive: [15] 95 % of control | [16] 96 % of control | [17] 96 % of control
